# Experiments:
# PAI-1 expression = test: TGF-β1-induced PAI-1 expression, Northern blot, BAEC; assay type: cell-based, bovine; settings: 50 μg/ml, TGF-β1 2 to 100 pM
# Description: (A, B, C, D, E, F) Cells were treated with 50 μg/ml cholesterol (A, B, C, D) and 50 μg/ml LDL (D) at 37° C. for 1 hr or with 1 μM fluvastatin or lovastatin (E) or several concentrations of fluvastatin (F) at 37° C. for 16 hr and then further incubated with increasing concentrations (as indicated) of TGF-β1 (A, B, C, E) or 50 pM TGF-β1 (D,F) for 2 hr. Northern blot analysis of PAI-1 and G3PDH was performed. A representative of a total of three analyses is shown (a). The relative intensities of the transcripts were quantified with a PhosphoImager. The ratio of the relative intensities of PAI-1 and G3PDH transcripts in cells treated without TGF-β1 and cholesterol, LDL or statins on the blot was taken as 1 fold or 100% of PAI-1 expression. The quantitative data from three independent analyses is shown (b). […] (G) Mv1Lu cells stably expressing a luciferase reporter gene driven by the PAI-1 promoter (MLECs-clone 32) were treated with increasing concentrations (as indicated) of cholesterol at 37 EC for 1 hr (a) or with 1 μM lovastatin at 37° C. for 16 hr (b) and then further incubated with 50 pM TGF-β for 7 hr. The luciferase activity in cells treated without cholesterol was taken as 100% (a). […] (H) Cells were incubated with 0.0625 and 0.125 pM TGF-β1 in the presence of increasing concentrations of cholesterol, as indicated. […] The experiments were carried out in triplicate.
# Mv1Lu cells [1] = test: [Methyl-3H]thymidine incorporation (DNA synthesis), Mv1Lu cells; assay type: cell-based, mink
# Description: (A, B, C, D, E, F) Cells were treated with 50 μg/ml cholesterol (A, B, C, D) and 50 μg/ml LDL (D) at 37° C. for 1 hr or with 1 μM fluvastatin or lovastatin (E) or several concentrations of fluvastatin (F) at 37° C. for 16 hr and then further incubated with increasing concentrations (as indicated) of TGF-β1 (A, B, C, E) or 50 pM TGF-β1 (D,F) for 2 hr. Northern blot analysis of PAI-1 and G3PDH was performed. A representative of a total of three analyses is shown (a). The relative intensities of the transcripts were quantified with a PhosphoImager. The ratio of the relative intensities of PAI-1 and G3PDH transcripts in cells treated without TGF-β1 and cholesterol, LDL or statins on the blot was taken as 1 fold or 100% of PAI-1 expression. The quantitative data from three independent analyses is shown (b). […] (G) Mv1Lu cells stably expressing a luciferase reporter gene driven by the PAI-1 promoter (MLECs-clone 32) were treated with increasing concentrations (as indicated) of cholesterol at 37 EC for 1 hr (a) or with 1 μM lovastatin at 37° C. for 16 hr (b) and then further incubated with 50 pM TGF-β for 7 hr. The luciferase activity in cells treated without cholesterol was taken as 100% (a). […] (H) Cells were incubated with 0.0625 and 0.125 pM TGF-β1 in the presence of increasing concentrations of cholesterol, as indicated. After 18 hr at 37° C., cell growth was determined by measurement of [^3H-methyl]thymidine incorporation into cellular DNA (a). The [^3H-methyl]thymidine incorporation in cells treated with vehicle only (T1); with TGF-β1 (T2); with cholesterol (T3); with cholesterol and TGF-β1 (T4) was measured. T1 was taken as 100%. The degree (%) of cholesterol-mediated reversal of TGF-β1 growth inhibition was estimated by the equation: % reversal=[1−(T3−T4/T1−T2)]×100 Cholesterol appeared to reverse TGF-β1 growth inhibition in a dose-dependent manner (b). The experiments were carried out in triplicate.
# The growth of cholesterol-treated cells was determined by measurement of [methyl-^3H]thymidine incorporation into cellular DNA as described (30). Briefly, cells grown near confluence on 48-well clustered dishes were treated with several concentrations of cholesterol at 37° C. for 1 hr in serum-free DMEM. The final concentration of ethanol (the vehicle for cholesterol) in the medium was 0.2%. […] The [methyl-^3H]thymidine incorporation into cellular DNA was then determined by incubation of cells with [methyl-^3H]thymidine at 37° C. for 2 hr in DMEM containing 0.1% fetal calf serum. […]
# Another prominent biological activity of TGF-β is growth inhibition of many different cell types. […] DNA synthesis was then determined by measurement of [^3H-methyl]thymidine incorporation into cellular DNA (FIG. 2Ha). […]
# Mv1Lu cells [2] = test: Cell viability under the experimental conditions, Mv1Lu cells; assay type: cell-based, mink; settings: conditions of the thymidine incorporation or affinity labeling experiment
# Description: The growth of cholesterol-treated cells was determined by measurement of [methyl-^3H]thymidine incorporation into cellular DNA as described (30). Briefly, cells grown near confluence on 48-well clustered dishes were treated with several concentrations of cholesterol at 37° C. for 1 hr in serum-free DMEM. The final concentration of ethanol (the vehicle for cholesterol) in the medium was 0.2%. Treated cells were then incubated with 0.0625 pM or 0.125 pM of TGF-β1 in DMEM containing 0.1% fetal calf serum at 37° C. for 18 hr. The [methyl-^3H]thymidine incorporation into cellular DNA was then determined by incubation of cells with [methyl-^3H]thymidine at 37° C. for 2 hr in DMEM containing 0.1% fetal calf serum. The optimal concentrations of TGF-β1 to inhibit cell growth are in the range of 0.1 to 1 pM.
# To define the specificity of the cholesterol effect, we determined the effects of cholesterol analogs and derivatives on ^125I-TGF-β1 binding to TβR-I and TβR-II in Mv1Lu cells. These cells were treated with 50 μg/ml of cholesterol or related oxysterol derivatives (25-hydroxycholesterol, 7-dehydrocholesterol (7-DHC), oxidized 7-DHC (oxy-7-DHC), cholest-5-en-7-one, 7-ketocholesterol, 7β,8β-epoxycholestanol, and 7β-hydroxycholesterol) at 37° C. for 1 hr. ^125I-TGF-β1 binding to TGF-β receptors was then determined by affinity labeling.
structure (smiles),measurement,setting,value
CC(C)CCC[C@@H](C)[C@H]1CC[C@H]2[C@@H]3CC=C4C[C@@H](O)CC[C@]4(C)[C@H]3CC[C@]12C [cholesterol],suppression of TGF-β1-stimulated PAI-1 expression,PAI-1 expression,50-80%
same,reversal of DNA synthesis inhibition induced by TGF-β1,"Mv1Lu cells [1]; 8 μg/ml, 0.0625 and 0.125 pM TGF-β1, 18 hr",almost completely reversed
same,"effect on DNA synthesis, alone","Mv1Lu cells [1]; 6 and 8 μg/ml, without TGF-β1",inhibited
same,effect on cell viability,Mv1Lu cells [2],did not appear to affect
